Results: patent publication US4148896A, “Antidepressant combination” (E. I. Du Pont de Nemours and Company, priority 1978, dated 1979)
pIC50: −log10 of the molar value. Read-outs that look alike come from different tables or passages of the source.

How the values were obtained:
[1] = tested on: tryptamine-induced stereotypies and hind limb paralysis; assay: Tryptamine potentiation test; assay type: in vivo, mice; conditions: oral
Description: […] […] (60 Mg/kg of tryptamine alone causes this syndrome but it lasts for less than a minute, usually only a few seconds.) The data were analyzed quantally and ED50's calculated.

[2] = biological target: T1, mouse brain MAO (Mus musculus, UniProt Q64133); conditions: for % INHIBITION: substrate 5 HT
T1 sequence (Q64133 1-526): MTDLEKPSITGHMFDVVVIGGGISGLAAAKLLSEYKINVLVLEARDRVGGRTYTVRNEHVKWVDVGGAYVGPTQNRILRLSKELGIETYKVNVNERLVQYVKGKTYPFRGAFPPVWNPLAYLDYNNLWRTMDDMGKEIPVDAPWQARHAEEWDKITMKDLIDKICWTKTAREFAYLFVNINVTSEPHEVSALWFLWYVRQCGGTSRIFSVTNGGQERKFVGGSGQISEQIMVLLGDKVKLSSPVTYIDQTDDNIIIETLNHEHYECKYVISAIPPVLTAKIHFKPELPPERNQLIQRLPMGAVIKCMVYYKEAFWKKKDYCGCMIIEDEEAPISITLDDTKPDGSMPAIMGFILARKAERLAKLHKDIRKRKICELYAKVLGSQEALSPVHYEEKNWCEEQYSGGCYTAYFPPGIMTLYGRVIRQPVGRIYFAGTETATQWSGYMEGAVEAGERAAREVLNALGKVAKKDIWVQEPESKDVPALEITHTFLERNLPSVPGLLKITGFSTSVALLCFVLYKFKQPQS

[3] = biological target: T1, mouse brain MAO; assay: biochemical
[4] = tested on: tetrabenazine-induced sedation; assay: Mouse antidepressant (antitetrabenazine) test: prevention of tetrabenazine-induced ptosis and loss of exploratory activity; conditions: for ED50: Mus musculus, po; for No. of Mice Blocked, EXPLORATORY ACTIVITY / No. of Mice Blocked, PTOSIS: 4 h after molindone
[5] = 1 mg/kg oral (free base), 1 h, N=10
[6] = 1 mg/kg oral (free base), 2 h, N=10
[7] = 1 mg/kg oral (free base), 4 h, N=10
[8] = 3 mg/kg oral (free base), 1 h, N=10
[9] = 3 mg/kg oral (free base), 2 h, N=10
[10] = 3 mg/kg oral (free base), 4 h, N=10
[11] = 9 mg/kg oral (free base), 1 h, N=10
[12] = 9 mg/kg oral (free base), 2 h, N=10
[13] = 9 mg/kg oral (free base), 4 h, N=10
[14] = 13 mg/kg oral (free base), 1 h, N=20
[15] = 13 mg/kg oral (free base), 2 h, N=20
[16] = 13 mg/kg oral (free base), 3 h, N=20
[17] = 13 mg/kg oral (free base), 4 h, N=20
[18] = 13 mg/kg oral (free base), 6 h, N=20
[19] = 13 mg/kg oral (free base), 24 h, N=20
[20] = 27 mg/kg oral (free base), 1 h, N=10
[21] = 27 mg/kg oral (free base), 2 h, N=10
[22] = 27 mg/kg oral (free base), 4 h, N=10
[23] = 81 mg/kg oral (free base), 1 h, N=10
[24] = 81 mg/kg oral (free base), 2 h, N=10
[25] = 81 mg/kg oral (free base), 4 h, N=10
[26] = molindone 1.5 mg/kg oral alone, N=20
[27] = molindone 4.5 mg/kg oral alone, N=20
[28] = molindone 13.5 mg/kg oral alone, N=20
[29] = molindone 40.5 mg/kg oral alone, N=20
[30] = molindone alone, oral, 4 h, free base basis, N=20 (Table 2)

## CCc1c(C)[nH]c2c1C(=O)C(CN1CCOCC1)CC2 (centres unmarked) [Molindone, 3-ethyl-6,7-dihydro-2-methyl-5-(morpholinomethyl)indol-4-(5H)-one]
[1]; tryptamine potentiation
  peak time, head twitch: 6 h
  peak time, hind limb paralysis: 4 h
[1]; at higher doses the potentiation disappears
  Effect on the action of tryptamine: potentiates the action of tryptamine in a dose-related manner
[2]; at the high concentration of 1×10^-3 M
  MAO inhibition (in words): virtually inactive
[2]; final conc. 10^-3 m/l
  % INHIBITION: 14%
[2]; final conc. 10^-4 m/l
  % INHIBITION: 1%
[2]; final conc. 10^-5 m/l
  % INHIBITION: 1%
[2]; final conc. 10^-6 m/l
  % INHIBITION: 0%
[3]
  pIC50: < 3.00
[4]; [5]
  NUMBER OF MICE BLOCKED, EXPLORATORY ACTIVITY: 0
  NUMBER OF MICE BLOCKED, PTOSIS: 0
[4]; [6]
  NUMBER OF MICE BLOCKED, EXPLORATORY ACTIVITY: 0
  NUMBER OF MICE BLOCKED, PTOSIS: 0
[4]; [7]
  NUMBER OF MICE BLOCKED, EXPLORATORY ACTIVITY: 0
  NUMBER OF MICE BLOCKED, PTOSIS: 0
[4]; [8]
  NUMBER OF MICE BLOCKED, EXPLORATORY ACTIVITY: 0
  NUMBER OF MICE BLOCKED, PTOSIS: 0
[4]; [9]
  NUMBER OF MICE BLOCKED, EXPLORATORY ACTIVITY: 0
  NUMBER OF MICE BLOCKED, PTOSIS: 1
[4]; [10]
  NUMBER OF MICE BLOCKED, EXPLORATORY ACTIVITY: 0
  NUMBER OF MICE BLOCKED, PTOSIS: 0
[4]; [11]
  NUMBER OF MICE BLOCKED, EXPLORATORY ACTIVITY: 0
  NUMBER OF MICE BLOCKED, PTOSIS: 0
[4]; [12]
  NUMBER OF MICE BLOCKED, EXPLORATORY ACTIVITY: 3
  NUMBER OF MICE BLOCKED, PTOSIS: 5
[4]; [13]
  NUMBER OF MICE BLOCKED, EXPLORATORY ACTIVITY: 5
  NUMBER OF MICE BLOCKED, PTOSIS: 7
[4]; [14]
  NUMBER OF MICE BLOCKED, EXPLORATORY ACTIVITY: 0
  NUMBER OF MICE BLOCKED, PTOSIS: 0
[4]; [15]
  NUMBER OF MICE BLOCKED, EXPLORATORY ACTIVITY: 6
  NUMBER OF MICE BLOCKED, PTOSIS: 8
[4]; [16]
  NUMBER OF MICE BLOCKED, EXPLORATORY ACTIVITY: 16
  NUMBER OF MICE BLOCKED, PTOSIS: 19
[4]; [17]
  NUMBER OF MICE BLOCKED, EXPLORATORY ACTIVITY: 19
  NUMBER OF MICE BLOCKED, PTOSIS: 20
[4]; [18]
  NUMBER OF MICE BLOCKED, EXPLORATORY ACTIVITY: 20
  NUMBER OF MICE BLOCKED, PTOSIS: 20
[4]; [19]
  NUMBER OF MICE BLOCKED, EXPLORATORY ACTIVITY: 6
  NUMBER OF MICE BLOCKED, PTOSIS: 10
[4]; [20]
  NUMBER OF MICE BLOCKED, EXPLORATORY ACTIVITY: 0
  NUMBER OF MICE BLOCKED, PTOSIS: 0
[4]; [21]
  NUMBER OF MICE BLOCKED, EXPLORATORY ACTIVITY: 10
  NUMBER OF MICE BLOCKED, PTOSIS: 10
[4]; [22]
  NUMBER OF MICE BLOCKED, EXPLORATORY ACTIVITY: 10
  NUMBER OF MICE BLOCKED, PTOSIS: 10
[4]; [23]
  NUMBER OF MICE BLOCKED, EXPLORATORY ACTIVITY: 0
  NUMBER OF MICE BLOCKED, PTOSIS: 0
[4]; [24]
  NUMBER OF MICE BLOCKED, EXPLORATORY ACTIVITY: 10
  NUMBER OF MICE BLOCKED, PTOSIS: 10
[4]; [25]
  NUMBER OF MICE BLOCKED, EXPLORATORY ACTIVITY: 10
  NUMBER OF MICE BLOCKED, PTOSIS: 10
[4]; 1 h, read-out: ED50, EXPLORATORY ACTIVITY
  ED50: > 81 mg/kg
[4]; 1 h, read-out: ED50, PTOSIS
  ED50: > 81 mg/kg
[4]; 2 h, read-out: ED50, EXPLORATORY ACTIVITY
  ED50: 11.2 mg/kg
[4]; 2 h, read-out: ED50, PTOSIS
  ED50: 8.5 mg/kg
[4]; 4 h, read-out: ED50, EXPLORATORY ACTIVITY
  ED50: 9 mg/kg
[4]; 4 h, read-out: ED50, PTOSIS
  ED50: 7.2 mg/kg
[4]; [26]
  No. of Mice Blocked, EXPLORATORY ACTIVITY: 0
  No. of Mice Blocked, PTOSIS: 1
[4]; [27]
  No. of Mice Blocked, EXPLORATORY ACTIVITY: 2
  No. of Mice Blocked, PTOSIS: 5
[4]; [28]
  No. of Mice Blocked, EXPLORATORY ACTIVITY: 12
  No. of Mice Blocked, PTOSIS: 18
[4]; [29]
  No. of Mice Blocked, EXPLORATORY ACTIVITY: 20
  No. of Mice Blocked, PTOSIS: 20
[4]; [30]
  ED50, EXPLORATORY ACTIVITY, Molindone: 10.8 mg/kg
  ED50, PTOSIS, Molindone: 6.4 mg/kg
[4]; oral, mice
  Peak time (antitetrabenazine activity): 4 to 6 h
